According to patent US20260240763A1, “Inhalable Serotonin Receptor Agonist Formulations” (Pinata Holdings Inc., priority 2022, published 2026):

System: generalized anxiety and/or post-traumatic stress disorder (PTSD)
Experiment: Inhaled dry powder given to subjects for generalized anxiety and/or PTSD
Type: in vivo, human
Conditions: encapsulated by HPMCAS, inhaler
Method: Three male subjects and one subject were administered doses of 5 mg, 10 mg, and 15 mg of psilocybin. Each individual dosage level was administered about three weeks apart for the treatment of generalized anxiety and/or post-traumatic stress disorder (PTSD). In a separate experiment, the subjects were administered doses of 1 mg, 5 mg, and 10 mg of 4-AoC-DMT (O-Acetylpsilocin). Each individual dosage level was administered about three weeks apart for the treatment of generalized anxiety and/or post-traumatic stress disorder (PTSD). The dry powder pharmaceutical compositions comprised psilocybin or 4-AoC-DMT encapsulated by HPMCAS using the methods described herein (e.g., spay drying). The encapsulated dry powder was administered with an inhaler.

Row | SMILES | adverse effects noted (4-AoC-DMT 1 mg and 5 mg, four subjects) | adverse effects noted (4-AoC-DMT 10 mg, indicated by 3 male patients and 1 patient) | effect on anxiety in the subjects (doses of 1 mg and 5 mg of 4-AoC-DMT, each about three weeks apart, three male subjects and one subject) | adverse effects noted (psilocybin 5 mg, 10 mg and 15 mg, four subjects)
1 | CC(=O)Oc1cccc2[nH]cc(CCN(C)C)c12 [4-AoC-DMT, 4-Acetoxy-N,N-dimethyltryptamine] | No adverse effects | too much | reduced anxiety | –
2 | CN(C)CCc1c[nH]c2cccc(OP(=O)(O)O)c12 [psilocybin, 4-phosphoryloxy-N,N-dimethyltryptamine] | – | – | – | No adverse effects
